Measured values published in patent publication US10828372B2, “Compositions and methods for the inhibition of fibrosis” (WISCONSIN ALUMNI RESEARCH FOUNDATION, priority 2017, dated 2020).
Where no end group is shown, it is not given here. PEG10kDa = 10 kDa linear methoxy-PEG propionaldehyde on the N-terminus; PEG20kDa = 20 kDa linear methoxy-PEG propionaldehyde on the N-terminus

Key:
[1] = literature examples; cited from earlier work
[2] = test system: Alexa 488-labeled human plasma FN; assay: Matrix Assembly in vitro Assay (MAA), A488-FN deposition by AH1F fibroblasts; assay type: cell-based; details: 24 hours, viability-normalized fluorescence, n=4, FUD run alongside each conjugate
Procedure: Matrix Assembly Assay: The matrix assembly assay was conducted in the 96-well plate format as described in the art. AH1F human skin fibroblast cells resuspended in 2% fetal bovine serum were added to each well for a density of 60,000 cells per well. A 1 hr incubation period at 37° C. followed to allow cell adhesion and spreading. FUD, PEG-FUD, or PEG-mFUD were added to each well following incubation. Immediately, Alexa Fluor® 488 fluorescence labeled human plasma fibronectin (A488-FN) was then added to each well for a final FN concentration of 11 μg/mL. The cells were then incubated for 24 hours at 37° C. Non-assembled FN was removed from each well by washing with Hank's Balanced Salt Solution (HBSS) containing Ca^2+ and Mg^2+. The well volume was restored to 60 μL with HBSS and a fluorescence reading from the bottom of each well was taken using a Synergy™ H1 (Biotek) plate reader (excitation: 485 nm, Emission: 538 nm). Cell viability was quantified using CellTiter-Glo® cell viability assay using the manufacturer's protocol. A 30 μL aliquot of HBSS was removed from each well and was replaced with 30 μL of the luminescence reagent prepared shortly beforehand. Luminescence was quantified using the same plate reader. The average of fluorescence values of a no A488FN or inhibitor control group were routinely subtracted from the readings of each well and were normalized using each well's corresponding luminescence value. Lastly, the cell viability normalized fluorescence values were expressed as a percentage of the 0 nM drug control group. The final results were processed using Graphpad Prism 7.0 software. IC50 values were extracted using a four-parameter dose-response curve function. Student's t test was used to determine significance of differences among peptides at a given drug concentration.
The PEG-FUD FN fibrillogenesis inhibitory performance was evaluated in vitro using the matrix assembly assay (MAA). The methodology of this assay is depicted in FIG. 8. The MAA quantifies ECM deposition of exogenous AlexaFluor® 488-labeled FN (A488FN) by a confluent monolayer of fibroblasts after an incubation period by measuring fluorescence of deposited FN. In this study, the performance of PEG-FUD peptides was compared to that of FUD and the PEG-mFUD control peptide using the AH1F human foreskin fibroblast cell line.

[3] = Fluorescence imaging (IVIS) of subcutaneous dose absorption; assay type: in vivo, mouse; details: for % dose remaining at the site of injection after 24 hours / apparent half-life at the site of injection: s.c. 12.5 mg/kg FUD equivalents; for apparent half-life at the site of injection: spiked with 1.5% Cy5 labeled drug, nude mice
Procedure: Preparation of Animal Experiment FUD and 10-40 kDa PEG-FUD Drug Dose: A 12.5 mg FUD equivalents per kg of mouse weight drug dose spiked with 1.5% Cy5 labeled drug was prepared by mixing an appropriate amount of unlabeled and labeled drug in a conical vial. The drug was then dialyzed ON into phosphate buffered saline (pH 7.4) using a 3000 MWCO dialysis membrane. The total volume of the dose was reduced to the appropriate value using a 3000 MWCO Amicon® Ultra-15 centrifugal unit. The final concentration of the drug was determined using a UV-vis spectrophotometer and the 646 nm extinction coefficient of Cy5, ε=271000 L·mol^−1·cm^−1.
10 week old mice weighing 20-23 g were placed under 2% isoflurane anesthesia and positioned on their abdomen inside of an IVIS Spectrum In Vivo Imaging System. A 100 uL dose containing 0.27 mg (12.5 mg/kg) of FUD or FUD equivalents of 10-40 kDa PEG-FUD that was spiked with 1.5% Cy5 labeled drug was delivered subcutaneously between the shoulder blades of the animals (n=3 per treatment group). The animals were imaged before the injection, immediately following injection, and at time points of 30 minutes and 1, 3, 6, 12, 24, 36, and 48 hours. The animals were sacrificed following the last time point and their organs were harvested for ex vivo fluorescence imaging and drug extraction and quantification. LivingImage® (PerkinElmer) software was used to analyze the views of each animal group. The autodraw feature of the software set to a 5% threshold was used to create unique regions of interest (ROI) on each animal at t=30 mins views that were consistently applied to each subsequent time point views to quantify drug levels present at the site of injection. Baseline autoflorescence values calculated from ROIs applied to “before injection” views were subtracted from the values of each time point's animals. The ROI values obtained from the t=30 mins views were used to calculate % dose remaining for each subsequent time point.

human plasma FN = assay: Isothermal Titration calorimetry (ITC) of peptide binding to fibronectin; details: pH 7.4 PBS, 25° C., triplicate
Procedure: Isothermal Titration calorimetry (ITC): ITC experiments were performed using a VP-ITC microcalorimeter (MicroCal, LLC) with a cell volume of 2.2 mL. In a typical experiment, the cell was filled with 1.4 mL of 2 μM human plasma FN and the syringe was filled with 1 mL of 28 μM FUD or PEG-FUD peptides. The temperature was set to 25° C. The titration experiment was performed in 39 injections (1×1, 4×4, and 34×8 μL) delivered in 120 sec intervals. Prior to injection, both FN and the peptides were dialyzed in separate dialysis bags overnight into the same PBS buffer (pH 7.4) solution. Routine analysis involved discarding of the first data point and subtraction of peptide into PBS buffer control run. Data were fit using one set of sites model Lavenberg-Marquardt nonlinear regression in Origin 7.0.
The binding of 10 kDa, 20 kDa, and 40 kDa PEG-FUD to FN was studied using Isothermal Titration calorimetry (ITC). This technique was used to determine the thermodynamic parameters as well as the binding constant (Kd) of the interaction. The peptide was injected into a human plasma FN solution in PBS at pH 7.4 and 25° C. in triplicate runs. […] A Kd of 6 (±3) nM was detected for FUD:FN. […] Similar entropy change of −65 (±3) cal/mol, −74 (±7) cal/mol, −66 (±7) cal/mol, and −73 (±2) and enthalpy change of −31 (±1) kcal/mol, −34 (±2) kcal/mol, −30 (±1) kcal/mol, and −32.5 (±0.5) kcal/mol were detected for the interaction of FUD and 10 kDa, 20 kDa, and 40 kDa PEG-FUD with FN, respectively. […] This observation is contrary to the expectation of PEG attachment diminishing a drug's affinity for its binding partner and presents an unexpected but desired feature of the PEG-FUD peptide.

human plasma FN, sequence (P02751 32-608 limits assumed): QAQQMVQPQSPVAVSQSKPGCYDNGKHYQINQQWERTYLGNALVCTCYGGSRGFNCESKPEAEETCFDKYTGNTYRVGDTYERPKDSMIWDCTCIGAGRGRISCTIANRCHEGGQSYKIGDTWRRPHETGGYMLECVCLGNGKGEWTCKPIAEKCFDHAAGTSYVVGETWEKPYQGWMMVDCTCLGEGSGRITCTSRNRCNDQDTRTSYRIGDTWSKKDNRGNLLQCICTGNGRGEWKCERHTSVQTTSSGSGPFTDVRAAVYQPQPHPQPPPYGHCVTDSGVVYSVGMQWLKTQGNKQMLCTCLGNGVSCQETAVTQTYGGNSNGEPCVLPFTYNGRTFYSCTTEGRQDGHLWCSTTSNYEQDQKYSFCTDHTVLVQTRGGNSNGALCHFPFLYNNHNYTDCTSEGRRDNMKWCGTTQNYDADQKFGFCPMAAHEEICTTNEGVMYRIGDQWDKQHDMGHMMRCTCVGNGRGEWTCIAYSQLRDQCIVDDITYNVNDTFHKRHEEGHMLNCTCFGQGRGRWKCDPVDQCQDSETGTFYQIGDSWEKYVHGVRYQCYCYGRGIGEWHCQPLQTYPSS
Alexa 488-labeled human plasma FN, sequence (P02751 32-608 limits assumed): as above

Substance	reduction of activity upon PEGylation [1]	IC50 [2]	% dose remaining at the site of injection after 24 hours [3]	apparent half-life at the site of injection [3]	Kd (human plasma FN)	migration into the site of injury (ear tag wound) ([3]; fluorescence imaging)
PEG-G120K-GH: literature example of a PEGylated protein with reduced activity	186 fold					
20 kDa PEG-FUD: FUD N-terminally mono-PEGylated with 20 kDa linear methoxy-PEG propionaldehyde (PEG20kDa-KDQSPLAGESGETEYITEVYGNQQNPVDIDKKLPNETGFSGNMVETEDT)		0.023 µM	3.5%	6.2 h	0.01 µM	
10 kDa PEG-FUD: FUD N-terminally mono-PEGylated with 10 kDa linear methoxy-PEG propionaldehyde (PEG10kDa-KDQSPLAGESGETEYITEVYGNQQNPVDIDKKLPNETGFSGNMVETEDT)		0.017 µM	1.2%	2.8 h	0.0046 µM	migration of 10 K PEG-FUD into the site of injury
40 kDa PEG-FUD: FUD N-terminally mono-PEGylated with 40 kDa branched methoxy-PEG propionaldehyde ({mPEG 40 kDa branched}-KDQSPLAGESGETEYITEVYGNQQNPVDIDKKLPNETGFSGNMVETEDT)		0.02 µM	7.9%	8.7 h	0.0147 µM	
